The values that follow come from patent US8148391B2 (Cephalon, Inc., priority 2006, dated 2012).

In experiment [1] the target is T1, c-Met (cytoplasmic domain) (Homo sapiens, UniProt P08581).
T1 construct: 10 ng/mL c-Met (cytoplasmic domain, Invitrogen Corporation #PV3143); purchased Invitrogen Corporation PV3143
Briefly: c-Met Kinase Assay (same methods as for ALK, with modifications). The conditions noted are these: 1 μM ATP (Km level), 10 ng/mL c-Met; read-out: cMet Activity (c-Met kinase inhibition, IC50 class). The format is biochemical. In a few lines: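 Plates were coated with phospholipase C-γ substrate (10 μg/mL) in TBS, and the reaction was started with 10 ng/mL c-Met cytoplasmic domain and run 15 min at 37 °C. Phosphoproduct was detected with Eu-N1-labelled PT66 antibody. IC50 came from a variable-slope sigmoidal fit of percent inhibition vs log concentration.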

Experiment [2] addresses T2, baculovirus-expressed ALK (Homo sapiens, UniProt Q9UM73).
T2 construct: host or cells: baculovirus expression system
Put plainly: ALK Kinase Assay (ELISA-type, time-resolved fluorescence). The format is biochemical. The conditions noted are these: 1 μM ATP (Km level), 30 ng/ml ALK, 37° C., 15 minutes; read-out: ALK Activity (ALK kinase inhibition, IC50 class). In a few lines:
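Plates coated with phospholipase C-γ substrate (10 μg/mL in TBS); reaction started with 30 ng/ml ALK and run 15 min at 37° C. Phosphorylated substrate detected with Eu-N1-labeled PT66 antibody. IC50 from sigmoidal variable-slope fit of percent inhibition vs log concentration.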

The term IC50 denotes the concentration at which inhibition is half-maximal.

T2 sequence (Q9UM73 19-1620): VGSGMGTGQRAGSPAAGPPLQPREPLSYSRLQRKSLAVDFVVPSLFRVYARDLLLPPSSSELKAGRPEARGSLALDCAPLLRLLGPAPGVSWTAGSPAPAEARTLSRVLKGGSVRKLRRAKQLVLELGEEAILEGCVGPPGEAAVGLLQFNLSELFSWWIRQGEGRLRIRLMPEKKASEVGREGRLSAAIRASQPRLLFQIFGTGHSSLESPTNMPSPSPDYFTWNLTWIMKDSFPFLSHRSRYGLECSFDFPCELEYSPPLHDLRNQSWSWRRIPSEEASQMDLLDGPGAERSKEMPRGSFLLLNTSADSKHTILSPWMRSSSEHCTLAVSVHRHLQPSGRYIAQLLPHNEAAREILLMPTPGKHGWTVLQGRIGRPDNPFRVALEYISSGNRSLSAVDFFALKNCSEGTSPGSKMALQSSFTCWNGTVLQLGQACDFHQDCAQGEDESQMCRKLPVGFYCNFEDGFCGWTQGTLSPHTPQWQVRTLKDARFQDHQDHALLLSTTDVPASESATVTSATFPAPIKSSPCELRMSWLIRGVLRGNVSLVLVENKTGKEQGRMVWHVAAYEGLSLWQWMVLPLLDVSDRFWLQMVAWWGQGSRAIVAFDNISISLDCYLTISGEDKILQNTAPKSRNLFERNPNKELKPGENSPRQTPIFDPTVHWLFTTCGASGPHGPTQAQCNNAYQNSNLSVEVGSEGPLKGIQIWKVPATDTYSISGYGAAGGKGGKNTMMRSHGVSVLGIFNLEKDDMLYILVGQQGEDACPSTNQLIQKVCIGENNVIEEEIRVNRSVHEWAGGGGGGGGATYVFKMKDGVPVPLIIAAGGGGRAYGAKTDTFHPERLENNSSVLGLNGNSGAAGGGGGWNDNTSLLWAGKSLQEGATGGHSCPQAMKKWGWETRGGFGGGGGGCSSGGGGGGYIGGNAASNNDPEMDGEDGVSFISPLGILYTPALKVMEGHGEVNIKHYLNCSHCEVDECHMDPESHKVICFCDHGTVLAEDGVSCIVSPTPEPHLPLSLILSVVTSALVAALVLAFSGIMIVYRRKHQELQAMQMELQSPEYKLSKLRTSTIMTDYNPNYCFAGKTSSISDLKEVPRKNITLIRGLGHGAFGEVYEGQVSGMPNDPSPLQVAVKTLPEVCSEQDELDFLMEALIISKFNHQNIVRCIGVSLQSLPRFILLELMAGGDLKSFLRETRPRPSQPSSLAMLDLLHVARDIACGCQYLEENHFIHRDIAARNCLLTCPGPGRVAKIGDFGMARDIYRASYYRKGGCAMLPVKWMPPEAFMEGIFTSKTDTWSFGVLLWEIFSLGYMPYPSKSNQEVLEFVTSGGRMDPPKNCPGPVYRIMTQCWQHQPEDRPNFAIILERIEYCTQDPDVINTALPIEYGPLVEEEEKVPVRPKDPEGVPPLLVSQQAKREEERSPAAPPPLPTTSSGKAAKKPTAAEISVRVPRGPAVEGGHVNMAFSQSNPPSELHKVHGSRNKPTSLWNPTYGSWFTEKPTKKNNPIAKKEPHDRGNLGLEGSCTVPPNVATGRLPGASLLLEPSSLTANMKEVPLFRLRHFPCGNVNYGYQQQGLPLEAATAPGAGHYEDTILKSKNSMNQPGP
T1 sequence (P08581 956-1390 limits assumed): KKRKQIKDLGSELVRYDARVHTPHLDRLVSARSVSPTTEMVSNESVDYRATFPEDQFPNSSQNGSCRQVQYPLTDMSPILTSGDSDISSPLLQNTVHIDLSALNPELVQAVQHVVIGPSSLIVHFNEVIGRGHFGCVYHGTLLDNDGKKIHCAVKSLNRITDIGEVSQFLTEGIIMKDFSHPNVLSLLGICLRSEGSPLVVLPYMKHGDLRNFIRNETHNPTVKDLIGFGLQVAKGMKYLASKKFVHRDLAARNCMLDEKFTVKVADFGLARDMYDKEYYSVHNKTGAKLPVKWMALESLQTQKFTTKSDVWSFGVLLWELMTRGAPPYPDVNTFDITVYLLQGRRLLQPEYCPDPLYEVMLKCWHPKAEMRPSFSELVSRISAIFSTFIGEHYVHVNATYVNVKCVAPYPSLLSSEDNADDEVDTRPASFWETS

For `CC1(C)CCC(=O)Nc2cc(Nc3ncc(Cl)c(N[C@H]4[C@@H](C(N)=O)[C@@H]5C=C[C@H]4C5)n3)ccc21` [Example 1236, (1S,2S,3R,4R)-3-[5-Chloro-2-(5,5-dimethyl-2-oxo-2,3,4,5-tetrahydro-1H-1-benzazepin-8-ylamino)-pyrimidin-4-ylamino]-bicyclo[2.2.1]hept-5-ene-2-carboxylic acid amide], the IC50 in experiment [1] and in experiment [2] was less than 0.1 µM each time.

`CC1(C)CCC(=O)Nc2cc(Nc3ncc(Cl)c(Nc4ccccc4OCCC#N)n3)ccc21` [Example 1238, 3-{2-[5-Chloro-2-(5,5-dimethyl-2-oxo-2,3,4,5-tetrahydro-1H-1-benzazepin-8-ylamino)-pyrimidin-4-ylamino]-phenoxy}-propionitrile]: the IC50 in experiment [1] and in experiment [2] was less than 0.1 µM throughout.

In the case of `CNC(=O)c1ccc(N)cc1Nc1nc(Nc2ccc3c(c2)C(C)(C)CCC(=O)N3)ncc1Cl` [Example 1239, 4-Amino-2-[5-chloro-2-(5,5-dimethyl-2-oxo-2,3,4,5-tetrahydro-1H-1-benzazepin-7-ylamino)-pyrimidin-4-ylamino]-N-methyl-benzamide], the IC50 in experiment [1] was 1 to 10 µM; in experiment [2], less than 0.1 µM.

For the molecule `COCCN1CCc2ccc(Nc3ncc(Cl)c(Nc4ccccc4OCC#N)n3)cc2CC1` [Example 1240, (2-{5-Chloro-2-[3-(2-methoxy-ethyl)-2,3,4,5-tetrahydro-1H-3-benzazepin-7-ylamino]-pyrimidin-4-ylamino}-phenoxy)-acetonitrile], the IC50 in experiment [1] and in experiment [2] was less than 0.1 µM throughout.

Take `COCCN1CCc2ccc(Nc3ncc(Cl)c(Nc4ccccc4OCC(N)=O)n3)cc2CC1` [Example 1241, 2-(2-{5-Chloro-2-[3-(2-methoxy-ethyl)-2,3,4,5-tetrahydro-1H-3-benzazepin-7-ylamino]-pyrimidin-4-ylamino}-phenoxy)-acetamide]: the IC50 in experiment [1] and in experiment [2] was 0.1 to 1 µM in each case.

For the molecule `COCCN1CCc2ccc(Nc3ncc(Cl)c(Nc4ccccc4OCC(=O)O)n3)cc2CC1` [Example 1242, (2-{5-Chloro-2-[3-(2-methoxy-ethyl)-2,3,4,5-tetrahydro-1H-3-benzazepin-7-ylamino]-pyrimidin-4-ylamino}-phenoxy)-acetic acid], the IC50 in experiment [1] is 0.1 to 1 µM; in experiment [2] it was less than 0.1 µM.

As to `CCN1C(=O)CCC(C)(C)c2ccc(Nc3ncc(Cl)c(Nc4ccccc4S(=O)(=O)C(C)C)n3)cc21` [Example 1243, 8-{5-Chloro-4-[2-(propane-2-sulfonyl)-phenylamino]-pyrimidin-2-ylamino}-1-ethyl-5,5-dimethyl-1,3,4,5-tetrahydro-1-benzazepin-2-one], the IC50 in experiment [1] and in experiment [2] was less than 0.1 µM throughout.

Turning to `CNC(=O)c1ccc(NC(C)=O)cc1Nc1nc(Nc2ccc3c(c2)C(C)(C)CCC(=O)N3)ncc1Cl` [Example 1244, 4-Acetylamino-2-[5-chloro-2-(5,5-dimethyl-2-oxo-2,3,4,5-tetrahydro-1H-1-benzazepin-7-ylamino)-pyrimidin-4-ylamino]-N-methyl-benzamide], the half-maximal inhibitory concentration (IC50) in experiment [1] and in experiment [2] was 1 to 10 µM throughout.

In the case of `COCCN1CCc2ccc(Nc3ncc(Cl)c(Nc4c(C)cccc4OCC#N)n3)cc2CC1` [Example 1245, (2-{5-Chloro-2-[3-(2-methoxy-ethyl)-2,3,4,5-tetrahydro-1H-3-benzazepin-7-ylamino]-pyrimidin-4-ylamino}-3-methyl-phenoxy)-acetonitrile], the IC50 in experiment [1] and in experiment [2] was 0.1 to 1 µM in each case.

In the case of `CC(=O)N1CCC(=O)NCc2cc(Nc3ncc(Cl)c(Nc4c(C)cccc4OCC#N)n3)ccc21` [Example 1246, {2-[2-(1-Acetyl-4-oxo-1,2,3,4,5,6-hexahydro-benzo[b][1,5]diazocin-8-ylamino)-5-chloro-pyrimidin-4-ylamino]-3-methyl-phenoxy}-acetonitrile], the figures for the IC50 in experiment [1] and in experiment [2] were less than 0.1 µM and 0.1 to 1 µM, respectively.

Take `CCN1C(=O)CCC(C)(C)c2ccc(Nc3ncc(Cl)c(Nc4ccccc4S(C)(=O)=O)n3)cc21` [Example 1248, 8-[5-Chloro-4-(2-methanesulfonyl-phenylamino)-pyrimidin-2-ylamino]-1-ethyl-5,5-dimethyl-1,3,4,5-tetrahydro-1-benzazepin-2-one]: the IC50 in experiment [1] and in experiment [2] was less than 0.1 µM throughout.

On to `COCCN1CCc2ccc(Nc3ncc(Cl)c(Nc4ccccc4S(C)(=O)=O)n3)cc2CC1` [Example 1249, 5-Chloro-N(4)-(2-methanesulfonyl-phenyl)-N(2)-[3-(2-methoxy-ethyl)-2,3,4,5-tetrahydro-1H-3-benzazepin-7-yl]-pyrimidine-2,4-diamine], for which the half-maximal inhibitory concentration (IC50) in experiment [1] is 0.1 to 1 µM; in experiment [2], less than 0.1 µM.

`CN1C(=O)CCC(C)(C)c2cc(Nc3ncc(Cl)c(Nc4ccccc4S(C)(=O)=O)n3)ccc21` [Example 1250, 7-[5-Chloro-4-(2-methanesulfonyl-phenylamino)-pyrimidin-2-ylamino]-1,5,5-trimethyl-1,3,4,5-tetrahydro-1-benzazepin-2-one]: the values for the IC50 in experiment [1] and in experiment [2] were 0.1 to 1 µM and less than 0.1 µM, respectively.

Take `CC(C)S(=O)(=O)c1cccc(F)c1Nc1nc(Nc2ccc3c(c2)NC(=O)CCC3(C)C)ncc1Cl` [Example 1251, 8-{5-Chloro-4-[2-fluoro-6-(propane-2-sulfonyl)-phenylamino]-2-ylamino}-5,5-dimethyl-1,3,4,5-tetrahydro-1-benzazepin-2-one]: the IC50 in experiment [1] is 1 to 10 µM; in experiment [2] it was 0.1 to 1 µM.

For `CCN1C(=O)CCC(C)(C)c2ccc(Nc3ncc(Cl)c(Nc4c(F)cccc4S(=O)(=O)C(C)C)n3)cc21` [Example 1252, 8-{5-Chloro-4-[2-fluoro-6-(propane-2-sulfonyl)-phenylamino]-pyrimidin-2-ylamino}-1-ethyl-5,5-dimethyl-1,3,4,5-tetrahydro-1-benzazepin-2-one], the IC50 in experiment [1] is 1 to 10 µM; in experiment [2], less than 0.1 µM.

In the case of `COCCN1CCc2ccc(Nc3ncc(Cl)c(Nc4c(F)cccc4S(=O)(=O)C(C)C)n3)cc2CC1` [Example 1253, 5-Chloro-N(4)-[2-fluoro-6-(propane-2-sulfonyl)-phenyl]-N(2)-[3-(2-methoxy-ethyl)-2,3,4,5-tetrahydro-1H-3-benzazepin-7-yl]-pyrimidine-2,4-diamine], the values for the IC50 in experiment [1] and in experiment [2] were 1 to 10 µM and less than 0.1 µM, respectively.

`CC(C)S(=O)(=O)c1cccc(F)c1Nc1nc(Nc2ccc3c(c2)C(C)(C)CCC(=O)N3)ncc1Cl` [Example 1254, 7-{5-Chloro-4-[2-fluoro-6-(propane-2-sulfonyl)-phenylamino]-pyrimidin-2-ylamino}-5,5-dimethyl-1,3,4,5-tetrahydro-1-benzazepin-2-one]: the IC50 is 1 to 10 µM in experiment [1] and less than 0.1 µM in experiment [2].

Regarding `CC(C)S(=O)(=O)c1cccc(F)c1Nc1nc(Nc2ccc3c(c2)NC(=O)CCC3)ncc1Cl` [Example 1255, 8-{5-Chloro-4-[2-fluoro-6-(propane-2-sulfonyl)-phenylamino]-pyrimidin-2-ylamino}-1,3,4,5-tetrahydro-1-benzazepin-2-one], the IC50 in experiment [1] lay within 1 to 10 µM; in experiment [2] it was 0.1 to 1 µM.

Turning to `NC(=O)c1cccc(F)c1Nc1nc(Nc2ccc3c(c2)NC(=O)CCC3)ncc1Cl` [Example 1256, 2-[5-Chloro-2-(2-oxo-2,3,4,5-tetrahydro-1H-1-benzazepin-8-ylamino)-pyrimidin-4-ylamino]-3-fluoro-benzamide], the values for the IC50 in experiment [1] and in experiment [2] were 1 to 10 µM and 0.1 to 1 µM, respectively.

As for `COCCN1CCc2ccc(Nc3ncc(Cl)c(Nc4c(F)cccc4C(N)=O)n3)cc2CC1` [Example 1257, 2-{5-Chloro-2-[3-(2-methoxy-ethyl)-2,3,4,5-tetrahydro-1H-3-benzazepin-7-ylamino]-pyrimidin-4-ylamino}-3-fluoro-benzamide], the figures for the IC50 in experiment [1] and in experiment [2] were 0.1 to 1 µM and less than 0.1 µM, respectively.

Turning to `CCN1C(=O)CCC(C)(C)c2ccc(Nc3ncc(Cl)c(Nc4c(F)cccc4S(C)(=O)=O)n3)cc21` [Example 1259, 8-[5-Chloro-4-(2-fluoro-6-methanesulfonyl-phenylamino)-pyrimidin-2-ylamino]-1-ethyl-5,5-dimethyl-1,3,4,5-tetrahydro-1-benzazepin-2-one], the IC50 was 1 to 10 µM in experiment [1] and 0.1 to 1 µM in experiment [2].

As for `CC1(C)CCC(=O)Nc2ccc(Nc3ncc(Cl)c(Nc4c(F)cccc4S(C)(=O)=O)n3)cc21` [Example 1260, 7-[5-Chloro-4-(2-fluoro-6-methanesulfonyl-phenylamino)-pyrimidin-2-ylamino]-5,5-dimethyl-1,3,4,5-tetrahydro-1-benzazepin-2-one], the values for the IC50 in experiment [1] and in experiment [2] were 1 to 10 µM and less than 0.1 µM, respectively.

For `CS(=O)(=O)c1cccc(F)c1Nc1nc(Nc2ccc3c(c2)NC(=O)CCC3)ncc1Cl` [Example 1261, 8-[5-Chloro-4-(2-fluoro-6-methanesulfonyl-phenylamino)-pyrimidin-2-ylamino]-1,3,4,5-tetrahydro-1-benzazepin-2-one], the IC50 is greater than 10 µM in experiment [1] and 1 to 10 µM in experiment [2].

On to `CN(CCC#N)c1cccc(F)c1Nc1nc(Nc2ccc3c(c2)NC(=O)CCC3(C)C)ncc1Cl` [Example 1263, 3-({2-[5-Chloro-2-(5,5-dimethyl-2-oxo-2,3,4,5-tetrahydro-1H-1-benzazepin-8-ylamino)-pyrimidin-4-ylamino]-3-fluoro-phenyl}-methyl-amino)-propionitrile], for which the IC50 in experiment [1] was in the range of 1 to 10 µM; in experiment [2], 0.1 to 1 µM.
